Structures can show the parent of a compound that is named as a salt. Where two headings read alike, the source gives them in different places.
How the values were obtained:
P. falciparum Dd2-HLH [1] = test: microbe, parasite or virus in culture; format: cell-based, Plasmodium falciparum
P. falciparum Dd2-HLH [2] = test: microbe, parasite or virus in culture; format: cell-based, Plasmodium falciparum; settings: read-out: Blood stage 72h EC50
[3] = test system: P. berghei-luciferase sporozoites; test: microbe, parasite or virus in culture; format: cell-based, Plasmodium berghei
[4] = Mammalian cell cytotoxicity assay, HEK293T (CellTiter-Glo, 72 h); settings: human, HEK293T cells
[5] = Plasmodium falciparum, DD2, 48 h, read-out: Blood stage 48h EC50
[6] = Plasmodium falciparum, DD2, 72 h
[7] = Plasmodium berghei, HepG2, liver-stage parasites, 48 hours in culture, read-out: Liver stage 48h EC50
[8] = Plasmodium falciparum, DD2, Hec50, 48 h, read-out: Blood stage 48 h EC50
[9] = Plasmodium falciparum, DD2, read-out: EC50 (antiplasmodial, quoted in discussion from Supplementary Table 1)
[10] = P. falciparum blood-stage parasites, 48 hours in culture, read-out: Blood stage 48h EC50
[11] = P. falciparum blood-stage parasites, 72 hours in culture
[12] = liver-stage parasites, 48 hours in culture, read-out: Liver stage 48h EC50

Compound	EC50 (P. falciparum Dd2-HLH [1]; [5])	EC50 (P. falciparum Dd2-HLH [2]; [6])	EC50 [3, 7]	CC50 at 72 h [4]	other results
CN(NC(=O)CC(=O)NN(C)C(=S)c1ccccc1)C(=S)c1ccccc1 [Elesclomol]	196 nM	437 nM	> 10000 nM	169 nM	–
COC(=O)[C@@]12OC[C@]34[C@H]([C@@H](O)[C@@H]1O)[C@@]1(C)CC(=O)C(O)=C(C)[C@@H]1C[C@H]3OC(=O)[C@H](OC(=O)/C=C(\C)C(C)C)[C@@H]24 [Bruceantin, reference compound]	–	7 nM	–	25 nM	EC50 (P. falciparum Dd2-HLH [1]; [8]): 5 nM
C=CCn1c(=O)c2cnc(Nc3ccc(N4CCN(C)CC4)cc3)nc2n1-c1cccc(C(C)(C)O)n1 [MK-1775]	595 nM	681 nM	6100 nM	310 nM	–
CNCCCN1c2ccccc2CCc2ccccc21 [Desipramine]	238 nM	622 nM	3330 nM	> 9950 nM	–
COc1cc2ncnc(Nc3ccc(F)c(Cl)c3)c2cc1NC(=O)/C=C/CN1CCCCC1 [Dacomitinib]	540 nM	953 nM	596 nM	2620 nM	–
CCOc1cc2ncc(C#N)c(Nc3ccc(OCc4cccc(F)c4)c(Cl)c3)c2cc1NC(=O)/C=C/CN(C)C [HKI-357]	212 nM	619 nM	573 nM	1720 nM	–
CCOC(=O)[C@H]1O[C@@H]1C(=O)N[C@@H](CC(C)C)C(=O)NCCC(C)C [aloxistatin, reference compound]	–	69 nM	> 10000 nM	> 9950 nM	EC50 (P. falciparum Dd2-HLH [1]; [9]): 31 nM
Cn1cc(CNCC2CCN(c3ncc(C(=O)NO)cn3)CC2)c2ccccc21 [Quisinostat, reference compound]	–	3 nM	–	33 nM	EC50 (P. falciparum Dd2-HLH [1]; [8]): 1 nM; EC50 ([3]; Plasmodium berghei, liver-stage parasites, 48 h in culture, read-out: Liver 48 h EC50): 8 nM
CCNC(=O)c1noc(-c2cc(C(C)C)c(O)cc2O)c1-c1ccc(CN2CCOCC2)cc1 [Luminespib]	38 nM	40 nM	29 nM	11 nM	–
Cc1cc(Nc2nc(C(O)c3ccc(F)cc3)nc3ccccc23)n[nH]1 (stereo not shown) [AC-430]	1200 nM	924 nM	4210 nM	> 9950 nM	–
C/C=C/C[C@@H](C)C(=O)[C@H]1C(=O)N[C@@H](C(C)C)C(=O)N(C)CC(=O)N(C)[C@@H](CC(C)C)C(=O)N[C@@H](C(C)C)C(=O)N(C)[C@@H](CC(C)C)C(=O)N[C@@H](C)C(=O)N[C@H](C)C(=O)N(C)[C@@H](CC(C)C)C(=O)N(C)[C@@H](CC(C)C)C(=O)N(C)[C@@H](C(C)C)C(=O)N1C [Valspodar]	307 nM	370 nM	3 nM	> 9950 nM	–
COc1ccc(C(=O)c2cn(C(C)C)c3ncnc(N)c23)cc1NC(=O)Nc1ccc(Cl)cc1Cl [CE-245677]	619 nM	810 nM	3330 nM	> 9950 nM	–
COCCn1c2c([n+](Cc3cnccn3)c1C)C(=O)c1ccccc1C2=O [Sepantronium bromide]	21 nM	82 nM	10 nM	56 nM	–
O=C1c2c(O)ccc(O)c2C(=O)c2c(NCCNCCO)ccc(NCCNCCO)c21 [Mitoxantrone]	239 nM	357 nM	1720 nM	217 nM	–
COC(=O)C[C@](O)(CCC(C)(C)O)C(=O)O[C@@H]1C(OC)=C[C@]23CCCN2CCc2cc4c(cc2[C@H]13)OCO4 [harringtonine, reference compound]	24 nM	43 nM	29 nM	–	EC50 (P. falciparum Dd2-HLH [1]; [9]): 6.1 nM
OC(CCN1CCCC1)(c1ccccc1)C1CCCCC1 (stereo not shown) [Procyclidine hydrochloride]	594 nM	437 nM	> 10000 nM	> 9950 nM	–
O=C(/C=C/c1cccc(S(=O)(=O)Nc2ccccc2)c1)NO [Belinostat]	90 nM	188 nM	1830 nM	1290 nM	–
CCN(CC)CCN(Cc1ccc(-c2ccc(C(F)(F)F)cc2)cc1)C(=O)Cn1c(SCc2ccc(F)cc2)nc(=O)c2c1CCC2 [Darapladib]	515 nM	850 nM	2880 nM	1730 nM	–
CS(=O)(=O)CCNCc1ccc(-c2ccc3ncnc(Nc4ccc(OCc5cccc(F)c5)c(Cl)c4)c3c2)o1 [Lapatinib]	300 nM	519 nM	4220 nM	> 9950 nM	–
O=C(NC1CCN(CCCCC2(C(=O)NCC(F)(F)F)c3ccccc3-c3ccccc32)CC1)c1ccccc1-c1ccc(C(F)(F)F)cc1 [Lomitapide]	277 nM	820 nM	2250 nM	791 nM	–
CC[C@]1(O)C[C@@H]2CN(CCc3c([nH]c4ccccc34)[C@@](C(=O)OC)(c3cc4c(cc3OC)N(C)[C@H]3[C@@](O)(C(=O)OC)[C@H](OC(C)=O)[C@]5(CC)C=CCN6CC[C@]43[C@@H]65)C2)C1 [Vinblastine sulfate]	29 nM	24 nM	1100 nM	102 nM	–

Compound	EC50 (P. falciparum Dd2-HLH [1]; [5])	EC50 (P. falciparum Dd2-HLH [2]; [6])	EC50 [3, 7]	CC50 at 72 h [4]	other results
CC[C@H](NC(=O)[C@H](C)NC)C(=O)N1C[C@@H](O)C[C@H]1Cc1c(-c2[nH]c3cc(F)ccc3c2C[C@@H]2C[C@H](O)CN2C(=O)[C@H](CC)NC(=O)[C@H](C)NC)[nH]c2cc(F)ccc12 [Birin/apant]	190 nM	603 nM	> 10000 nM	> 9950 nM	–
C/C1=C/C[C@@H](/C(C)=C/c2csc(C)n2)OC(=O)C[C@H](O)C(C)(C)C(=O)[C@H](C)[C@@H](O)[C@@H](C)CCC1 [Desoxyepothilone B]	44 nM	76 nM	986 nM	–	–
CC(C)n1nc(-c2ccc3oc(N)nc3c2)c2c(N)ncnc21 [Sapanisertib]	187 nM	305 nM	665 nM	102 nM	–
COCCN1CCN(Cc2ccc(-c3n[nH]c4c3C(=O)c3c(NC(=O)NN5CCOCC5)cccc3-4)cc2)CC1 [RGB-286638]	138 nM	300 nM	87 nM	58 nM	–
CO[C@@H]1[C@H](O)C[C@@H](O[C@@H]2C[C@H](Oc3cc4cc5c(c(O)c4c(O)c3C)C(=O)[C@@H](O[C@H]3C[C@@H](O[C@H]4C[C@@H](O[C@H]6C[C@](C)(O)[C@@H](OC(C)=O)[C@H](C)O6)[C@H](O)[C@@H](C)O4)[C@H](O)[C@@H](C)O3)[C@H]([C@H](OC)C(=O)[C@@H](O)[C@@H](C)O)C5)O[C@H](C)[C@@H]2OC(C)=O)O[C@@H]1C [Chromomycin A3]	31 nM	48 nM	30 nM	–	–
CO[C@@H]1[C@H](N(C)C(=O)c2ccccc2)C[C@H]2O[C@]1(C)n1c3ccccc3c3c4c(c5c6ccccc6n2c5c31)C(=O)NC4 [Midostaurin]	86 nM	–	3600 nM	> 9950 nM	–
CNC(=O)[C@H](Cc1ccccc1)NC(=O)[C@H](CC(C)C)[C@H](CSc1cccs1)C(=O)NO [Batimastat]	95 nM	165 nM	> 10000 nM	> 9950 nM	–
C#Cc1cccc(Nc2ncnc3cc(OC)c(OCCCCCCC(=O)NO)cc23)c1 [CUDC-101]	41 nM	52 nM	349 nM	408 nM	–
OC1(c2ccc(Cl)c(C(F)(F)F)c2)CCN(CCCC(c2ccc(F)cc2)c2ccc(F)cc2)CC1 [Penfluridol]	218 nM	524 nM	3170 nM	1900 nM	–
CC(C)c1cc(CNc2nc(Nc3cc(C4CC4)[nH]n3)cc(N3CCN(C)CC3)n2)on1 [XL-228]	56 nM	621 nM	–	537 nM	–
CNCCCC1c2ccccc2C=Cc2ccccc21 [Protriptyline hydrochloride]	430 nM	959 nM	–	> 9950 nM	EC50 ([3]; Plasmodium berghei, HepG2, 48 h, read-out: Liver stage 48h EC50): > 10000 nM
Cc1c(-c2ccc(O)cc2)n(Cc2ccc(OCCN3CCCCCC3)cc2)c2ccc(O)cc12 [Bazedoxifene Acetate]	192 nM	636 nM	5560 nM	3040 nM	–
COc1ccc(CCN2CCC(Nc3nc4ccccc4n3Cc3ccc(F)cc3)CC2)cc1 [Astemizole]	–	–	–	> 9950 nM	–
Cc1ccc(C(=O)Nc2ccc(CN3CCN(C)CC3)c(C(F)(F)F)c2)cc1C#Cc1cnc2cccnn12 [Pon/atinib]	294 nM	555 nM	241 nM	–	–
CCc1cc2c(cc1N1CCC(N3CCOCC3)CC1)C(C)(C)c1[nH]c3cc(C#N)ccc3c1C2=O [Alectinib Hydrochloride]	907 nM	926 nM	152 nM	797 nM	–
CCC1=C[C@@H]2CN(C1)Cc1c([nH]c3ccccc13)[C@@](C(=O)OC)(c1cc3c(cc1OC)N(C)[C@H]1[C@@](O)(C(=O)OC)[C@H](OC(C)=O)[C@]4(CC)C=CCN5CC[C@]31[C@@H]54)C2 [Vinorelbine]	171 nM	809 nM	–	2980 nM	–
CC(C)C[C@H](NC(=O)[C@H](Cc1ccccc1)NC(=O)c1cnccn1)B(O)O [Bortezomib]	91 nM	82 nM	12 nM	25 nM	–
O=C(Nc1c[nH]nc1-c1nc2ccc(CN3CCOCC3)cc2[nH]1)NC1CC1 [AT-9283]	129 nM	864 nM	569 nM	–	–
Oligomycin A	–	–	–	–	EC50 (P. falciparum Dd2-HLH [1]; [10]): 57 nM; EC50 (P. falciparum Dd2-HLH [2]; [11]): 168 nM; EC50 [3, 12]: 578 nM
COc1ccc(C[C@H]2NC[C@H](O)[C@H]2OC(C)=O)cc1 [Anisomycin]	–	–	–	–	EC50 (P. falciparum Dd2-HLH [1]; [10]): 44 nM; EC50 (P. falciparum Dd2-HLH [2]; [11]): 61 nM; EC50 [3, 12]: 266 nM

Source: article PMC11145868, “Protein target similarity is positive predictor of in vitro antipathogenic activity: a drug repurposing strategy for Plasmodium falciparum” (Journal of Cheminformatics, 2024)
